From patent US9717790B2, “Sphingoglycolipid analogues” (Victoria Link Limited, priority 2013, dated 2017)
“Also recorded” adds a separate entry of the source.

Key:
[1] = tested on: cytokines IL-12p70, IL-4 and IFN-γ; test: Analysis of cytokine release into serum; type: in vivo, C57BL/6 mice; details: for ratio of cytokines IFN-γ/IL-4: 0.23 nmol intravenously, blood at 18 h (IFN-γ) and 3 h (IL-4), compared to α-GalCer
Description: Groups of C57BL/6 mice (n=3) are injected intravenously with 0.23 nmol of the indicated compounds.
Each compound of the invention is supplied as formulated product (see example 3), and diluted in water for delivery (0.23 nmol/mouse) by intravenous injection into the lateral tail vein. In humans the expected therapeutic dose lies in the 50-4800 (μg/m^2) range (Giaccone, Punt et al. 2002). Note, 0.23 nmol in a mouse is a human equivalent dose of 30 μg/m^2 for α-GalCer.
Blood is collected from the lateral tail vein at different time intervals after glycolipid administration. Serum is collected after blood has clotted, and levels of cytokines IL-12p70, IL-4 and IFN-γ are assessed by cytokine bead array technology (Biolpex, Biorad), according to the manufacturer's instructions.

[2] = tested on: C1498 acute leukemia cells; test: Analysis of anti-leukemia activity, C1498 challenge; type: in vivo, mice
Description: The prophylactic vaccines consist of irradiated C1498 cells that are incubated with compounds of the invention for 24 h. Control animals are injected with irradiated C1498 cells alone, compound alone, or left untreated. The time to onset of leukemia-associated symptoms are shown. (A) Analysis of vaccines incorporating CN161. (B) Analysis of vaccines incorporating α-GalCer.
To generate cell-based vaccines, C1498 acute leukemia cells are cultured for 24 h in complete IMDM supplemented with 200 ng/ml of α-GalCer or 200 ng/ml CN161, washed three times with PBS, and γ-irradiated (150 Gy). Vaccines comprising of 7.5×10^5 cells are administered intravenously via the lateral tail vein. Mice are monitored for onset of leukemia-associated symptoms, such as weight loss, hunching or reduced grooming. All experiments are conducted with five animals per treatment group, with controls including a leukemia-only group.

human NKT cells = test: Proliferation of human NKT cells in PBMC culture; type: cell-based; details: PBMC from one donor, 7 days culture with IL-2
Description: Peripheral blood mononuclear cells from one donor are cultured for 7 days with different doses of the indicated compounds in the presence of IL-2, and then the percentages of NKT cells in the final cultures determined by flow cytometry with fluorescent α-GalCer-loaded CD1d tetramers and anti-CD3. Data are expressed as percentage of NKT cells (α-GalCer/CD1d tetramer and anti-CD3-binding cells) of total T cells (all anti-CD3-binding cells).
Peripheral blood is drawn into heparinized tubes, diluted 1:1 in PBS, and layered over a sodium diatrizoate and polysaccharide solution (Lymphoprep; Axis-Shield, Oslo, Norway) before centrifugation at 800×g for 25 minutes at room temperature to collect the peripheral blood mononuclear cell (PBMC) fraction, which contains NKT cells. To assess proliferation of NKT cells, PBMC (2×10^5 per well) are cultured at 37° C. in Iscove's Modified Dulbecco's Medium with 5% human AB serum and the indicated concentrations of α-GalCer, or CN161, with recombinant human IL-2 50 U/mL (Chiron Corporation, Emeryville, Calif.) added after 24 hours. After 7 days of culture, the cells are analysed by flow cytometry, using fluorescent soluble CD1d tetramers that have been loaded with α-GalCer to identify the NKT cells. […]

SVYDFFVWL-loaded targets = test: In vivo cytotoxic capacity of TRP-2 specific T cells after vaccination; details: 0.23 nmol compound with long TRP-2 peptide (0.57 nmol) intravenously; targets injected 7 days after vaccination
Description: Control animals are injected with the long peptide alone, or α-GalCer alone. […] To discriminate the targets from host tissue, the injected cells are labelled with the fluorescent dye carboxyfluorescein succinimidyl ester (CFSE). A cohort of syngeneic splenocytes (without peptide) labelled with the fluorescent dye cell tracker orange are also injected to serve as controls. Killing is defined as the percentage of peptide-loaded targets killed relative to control cells. Each treatment group contained 5 animals with mean percentage of killing per group±SEM shown.

B16.OVA melanoma = test: Analysis of anti-tumour activity, B16.OVA melanoma challenge; type: in vivo, C57BL/6 mice
Description: Groups of C57BL/6 mice (n=5) are injected with 1×10^5 live B16.OVA tumour cells subcutaneously on day 0. On day 6 0.23 nmol of the indicated compounds (α-GalCer or CN161) mixed with OVA protein (200 μg) are administered intraveneously. The tumour size is monitored regularly with calipers until the first animal in each group reached 200 mm^2, at which point the whole group is culled.
Control animals are injected with the long peptide alone, α-GalCer alone, or left untreated. The mean tumour sizes per group (n=5)±SEM are shown.
Groups of C57BL/6 mice (n=5) receive a subcutaneous injection into the flank of 1×10^5 B16.OVA melanoma cells, which express a cDNA encoding the chicken ovalbumin (OVA) sequence. The different groups are treated 7 days later, when tumours are fully engrafted, by intravenous injection of one of the following; vaccines as indicated in text and figure legends. Mice are monitored for tumour growth every 3-4 days, and tumour size for each group is calculated as the mean of the products of bisecting diameters (+SEM). Measurements are terminated for each group when the first animal develops a tumour exceeding […].

[3] = cited from earlier work
[4] = in vivo; cited from earlier work
[5] = cell-based vaccine: irradiated C1498 cells incubated with compound (200 ng/ml) for 24 h, intravenously

SMILES	ratio of cytokines IFN-γ/IL-4 [1]	anti-leukemia activity (time to onset of leukemia-associated symptoms) [2, 5]	anti-leukemia activity (time to onset of leukemia-associated symptoms) ([2]; compound injected alone)	proliferation of iNKT cells (percentage of NKT cells of total T cells) (human NKT cells)	cytotoxic response (killing of peptide-loaded targets) (SVYDFFVWL-loaded targets)	antitumour activity against B16.OVA melanoma (tumour growth) (B16.OVA melanoma; 0.23 nmol compound with long TRP2 peptide (0.57 nmol) intravenously)	antitumour activity against B16.OVA melanoma (B16.OVA melanoma; compound with long OVA peptide KISQAVHAAHAEINEAGRESIINFEKLTEWT intravenously)	vaccine adjuvant activity, progression of B16.OVA melanoma (B16.OVA melanoma; therapeutic challenge, 0.23 nmol compound mixed with OVA protein (200 μg) intravenously)	solubility [3]	efficacy in human clinical trials [4]	time of peak IFN-γ level in the serum ([1]; after injection)	time of peak IL-12p70 level in the serum ([1]; after injection)	time of peak production of IL-4 in the serum ([1]; after injection)
CCCCCCCCCCCCCCCCCCCCCCCCCC(=O)N[C@@H](CO[C@H]1O[C@@H]2CO[C@@H]2[C@H](O)[C@H]1O)[C@H](O)[C@H](O)CCCCCCCCCCCCCC [CN154, (2S,3S,4R)-1-(4,6-Anhydro-α-D-galactopyranosyloxy)-2-hexacosanoylamino-3,4-octadecandiol]	higher ratio of IFN-γ/IL-4	–	–	–	–	–	–	–	–	–	–	–	–
CCCCCCCCCCCCCCCCCCCCCCCCCC(=O)N[C@@H](C[C@]1(O)O[C@H](CSSC[C@H]2O[C@@](O)(C[C@H](NC(=O)CCCCCCCCCCCCCCCCCCCCCCCCC)[C@H](O)[C@H](O)CCCCCCCCCCCCCC)[C@H](O)[C@@H](O)[C@H]2O)[C@H](O)[C@H](O)[C@H]1O)[C@H](O)[C@H](O)CCCCCCCCCCCCCC [CN161, 6,6′-Disulfanediylbis[6-deoxy-1-((2S,3S,4R)-3,4-dihydroxy-2-(hexacosanoylamino)octadecyl)-α-D-galactopyranose]]	higher ratio of IFN-γ/IL-4	anti-leukemia activity; also recorded: significant protection	anti-leukemia activity; also recorded: can provide protection	able to induce the proliferation of iNKT cells	potent antigen-specific cytotoxicity; also recorded: greater cytotoxic response	delayed tumour growth; also recorded: anti-tumour activity	equivalent anti-tumour activity	potent vaccine adjuvant activity	–	–	–	–	–
CCCCCCCCCCCCCCCCCCCCCCCCCC(=O)N[C@@H](CO[C@H]1O[C@H](CO)[C@H](O)[C@H](O)[C@H]1O)[C@H](O)[C@H](O)CCCCCCCCCCCCCC [α-GalCer, α-Galactosylceramide]	–	significant protection	not active and not	–	–	–	–	–	poor solubility	lack of efficacy	> 12 h	6 h	2 to 3 h
